Reference: patent publication US20050034187A1, “Modified tet-inducible system for regulation of gene expression in plants” (priority 2000, published 2005)

Key:
[1] = tested on: wild type tet Receptor and TripleX-driven GUS gene (pAC489/pAC499 double transformants); assay: Seed germination test: induction of GUS gene in seedlings; type: in vivo, tobacco; settings: concentration curve, FIG. 19
[2] = tested on: TripleX/GUS (pAC499) repressed by nTR under control of different promoters; assay: Leaf disk induction experiment, GUS assay (double transformants); type: cell-based, tobacco; settings: Doxy 5 mg/l, leaf disks, FIG. 2
From the text: FIG. 2—Induction of GUS Gene in Leaves Expressing NLS-tet Receptor Under Control of Different Promoters. Tobacco plants. already expressing pAC499 (TripleX/GUS) were transformed with […] pCAMBIA-based Agro cassettes carrying NPTII marker gene and nTR under control of 35S, 2×35S, A. thaliana HPPD, A. thaliana AHAS, A. thaliana Actin and (OCS)3MAS promoters (pACAG076, 077, 078, 079, 109 and 084), as well as pAC489 (35S/WtTR) to yield a number of transgenic lines. This collection of tobacco plants was tested in a preliminary induction experiment performed on leaf disks: 5-10 mm leaf disks were excised from plants and put into six- or twelve-well plates with liquid MS medium and with or without Doxy 5 mg/l at 5 mg/l. GUS assays were performed with the tissues 5 days later. Each bar represents one sample; numbers above the bars represent magnitude of induction.
FIG. 3—Induction of GUS Gene In Tobacco Leaves Expressing nTR Under Control of Different Promoters. […]
Evaluation of tet inducible system in plant tissues. […] These plates were cultivated in dark on shaker at 90 rpm for 5 days (three weeks for analysis of induction of herbicide resistance) and then used in assays or evaluated visually. […] Three weeks later the induction of regeneration from these disks was evaluated.

[3] = tested on: tet-inducible luciferase cassettes with (OCS)3MAS/nTR; assay: Leaf disk induction assay, luciferase; type: cell-based, tobacco; settings: for maximum magnitude of induction (luciferase): FIGS. 14 and 15; for highest induction in some lines (luciferase) / average induction of the reporter (luciferase): doxycycline 5 mg/l
Method: FIG. 9—Doxycycline-Mediated Induction of Expression of Luciferase from (OCS)3triplexmin Promoter in Plants is Stronger than TripleX. This experiment was performed in order to test the performance of OCS elements-modified TripleX promoter on the whole plant level. Transgenic tobacco plants carrying (OCS)3MAS/nTR, NPTII, and either of (OCS)3TripleXmin/LUC or TripleX/LUC cassettes were tested in leaf disk induction assays: 5-10 mm leaf disks were excised from plants and put into six- or twelve-well plates with liquid MS medium and with or without Doxy 5 mg/l at 5 mg/l. Luciferase assays were performed with the tissues 5 days later. Each bar represents one sample; numbers above the bars represent magnitude of induction.
FIG. 10—Doxycycline-Mediated Induction of Expression of Luci erase from (OCS)3triplexmin Promoter in Plants is Stronger than TripleX. […] 5-10 mm leaf disks and pieces of roots were excised from plants and put into six- or twelve-well plates with liquid MS medium and with or without Doxy 5 mg/l at 5 mg/l. Luciferase assays were performed with the tissues 5 days later. Each bar represents an average of three samples; numbers above the bars represent magnitude of induction.
FIG. 13—Doxycycline-Mediated Induction of Expression of Luciferase in Inducible Cassettes With or Without One or More MAR Elements. This experiment was performed in order to test the effect of placing inducible luciferase gene between one or more MAR elements. Tobacco plants carrying TripleX/LUC cassette placed between one or more MAR elements, (OCS)3MAS/nTR and NPTII genes (pACAG073 and pACAG081) as well as the reference cassette without one or more MAR elements (pACAG085) were used as donors of 5-10 mm leaf disks which were cultivated in six- or twelve-well plates with liquid MS medium with or without doxycycline 5 mg/l for five days. Samples were assayed for luciferase activity. Each bar represents one sample; numbers above the bars represent magnitude of induction.
FIG. 14—Doxycycline-Mediated Induction of Luciferase in Leaves Carrying Inducible Cassettes With or Without One or More MAR Elements. This experiment was performed in order to test the effect of placing inducible luciferase gene between one or more MAR elements. […] 5-10 mm leaf disks and pieces of roots were excised from plants and put into six- or twelve-well plates with liquid MS medium and with or without Doxy 5 mg/l at 5 mg/l. Luciferase assays were performed with the tissues 5 days later. Each bar represents an average of three samples; numbers above the bars represent magnitude of induction.
Evaluation of tet inducible system in plant tissues. 5-10 mm leaf disks were excised from plants and put into six- or twelve-well plates with liquid MS medium and with or without a tet analog at 5 mg/l. When transgenic plants carried cassettes for induction of herbicide resistance, the medium was supplemented with PURSUIT® at concentration of 1 μM or higher. These plates were cultivated in dark on shaker at 90 rpm for 5 days (three weeks for analysis of induction of herbicide resistance) and then used in assays or evaluated visually. Another test was designed for evaluation of inducible herbicide resistance. In this test leaf disks were placed on MS agar supplemented with. 1 mg/l of BAP and PURSUIT® at concentration of 1 μM or higher either alone or with a tet analog at 5 mg/l. Three weeks later the induction of regeneration from these disks was evaluated.

Q: Which “threshold concentration at which noticeable induction occurred” value [1] does the source give for `C[C@H]1c2cccc(O)c2C(=O)C2=C(O)[C@]3(O)C(=O)C(C(N)=O)=C(O)[C@@H](N(C)C)[C@@H]3[C@@H](O)[C@@H]21` [doxycycline] here?
A: 0.1 mg/L

Q: And the “magnitude of induction of GUS” value ([2]; nTR driven by 35S promoter, 5 days)?
A: 26 to 76 fold

Q: And the “maximum induction of GUS” value ([2]; nTR driven by HPPD and AHAS promoters)?
A: 1.4 fold

Q: What about the “maximum magnitude of induction (luciferase)” value ([3]; cassettes carrying at least one MAR element, Doxy 5 mg/l) of the same molecule?
A: 50 fold

Q: And the “maximum magnitude of induction (luciferase)” value ([3]; cassettes without MAR element, Doxy 5 mg/l)?
A: 80 fold

Q: What about the “maximum induction (luciferase)” value ([3]; pACAG085 (TripleX/LUC), Doxy 5 mg/l, leaf disks, FIG. 10) of the same molecule?
A: 83 fold

Q: What about the “highest induction in some lines (luciferase)” value ([3]; pACAG113 and pACAG085 plants, FIG. 9) of the same molecule?
A: 100 fold

Q: What about the “average induction of the reporter (luciferase)” value ([3]; pACAG113 and pACAG085 plants, leaf disks, FIG. 9) of the same molecule?
A: 30 to 40 fold

Q: And the “magnitude of induction for several lines (luciferase)” value ([3]; pACAG113 cassette ((OCS)3TripleXmin/LUC), Doxy 5 mg/l, leaf disks, FIG. 10)?
A: higher than 100 fold

Q: What about the “average induction of the reporter (luciferase)” value ([3]; the other three cassettes with or without MAR, FIG. 13) of the same molecule?
A: 30 to 40 fold

Q: What about the “highest induction in some lines (luciferase)” value ([3]; the other three cassettes, FIG. 13) of the same molecule?
A: 100 fold
